From PubChem BioAssay (NCI)
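Following 48 hours of exposure in 96-well plates, responses at five concentrations were used to interpolate endpoints linearly. The concentration for 50% growth inhibition is given as GI50. TGI denotes the concentration required for complete inhibition of growth.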

Key:
Test in all cases: NCI tumour cell line growth inhibition, 48 h
[1] = tested on: HOP-92 NSCLC
[2] = tested on: 786-0 renal
[3] = tested on: SN12C renal
[4] = tested on: SK-MEL-5 melanoma
[5] = tested on: T-47D breast
[6] = tested on: NCI-H522 lung
[7] = tested on: CAKI-1 renal
[8] = tested on: ACHN renal
[9] = tested on: SK-OV-3 ovarian
[10] = tested on: TK-10 renal
[11] = tested on: NCI/ADR-RES ovarian
[12] = tested on: RPMI-8226 leukemia
[13] = tested on: NCI-H460 lung
[14] = tested on: OVCAR-8 ovarian
[15] = tested on: EKVX NSCLC
[16] = tested on: OVCAR-4 ovarian
[17] = tested on: UACC-257 melanoma
[18] = tested on: DU-145 prostate
[19] = tested on: OVCAR-5 ovarian
[20] = tested on: M14 melanoma
[21] = tested on: SK-MEL-28 melanoma
[22] = tested on: MOLT-4 leukemia
[23] = tested on: HCT-15 colon
[24] = tested on: SNB-19 CNS
[25] = tested on: HCT-116 colon
[26] = tested on: UACC-62 melanoma
[27] = tested on: SF-268 CNS
[28] = tested on: OVCAR-3 ovarian
[29] = tested on: SNB-75 CNS
[30] = tested on: NCI-H226 lung
[31] = tested on: KM12 colon
[32] = tested on: MALME-3M melanoma
[33] = tested on: HS 578T breast
[34] = tested on: SR leukemia
[35] = tested on: A498 renal
[36] = tested on: PC-3 prostate
[37] = tested on: HOP-62 NSCLC
[38] = tested on: COLO 205 colon
[39] = tested on: SK-MEL-2 melanoma
[40] = tested on: HCC-2998 colon
[41] = tested on: NCI-H23 lung
[42] = tested on: CCRF-CEM leukemia
[43] = tested on: SF-539 CNS
[44] = tested on: UO-31 renal
[45] = tested on: HL-60(TB) leukemia
[46] = tested on: BT-549 breast
[47] = tested on: MDA-MB-435
[48] = tested on: U251 CNS
[49] = tested on: SF-295 CNS
[50] = tested on: K-562 leukemia
[51] = tested on: RXF 393 renal
[52] = tested on: LOX IMVI melanoma
[53] = tested on: HT29 colon
[54] = tested on: IGROV1 ovarian
[55] = tested on: MDA-MB-231 breast
[56] = tested on: MCF7 breast
[57] = tested on: A549 NSCLC
[58] = tested on: SW-620 colon

## COc1ccc(/C=C2\CS(=O)(=O)C/C(=C\c3ccc(OC)cc3)C2=O)cc1
[1]
  GI50: 8.74 µM
  TGI: 69 µM
[2]
  GI50: 1.75 µM
  TGI: 3.21 µM
[3]
  GI50: 1.78 µM
  TGI: 4.04 µM
[4]
  GI50: 1.57 µM
  TGI: 2.92 µM
[5]
  GI50: 2.91 µM
  TGI: 28.4 µM
[6]
  GI50: 1.15 µM
  TGI: 3.02 µM
[7]
  GI50: 2.16 µM
  TGI: 6.1 µM
[8]
  GI50: 1.79 µM
  TGI: 3.35 µM
[9]
  GI50: 3.3 µM
  TGI: 26.2 µM
[10]
  GI50: 2.67 µM
  TGI: 6.91 µM
[11]
  GI50: 2.06 µM
  TGI: 4.87 µM
[12]
  GI50: 0.567 µM
  TGI: 4.89 µM
[13]
  GI50: 1.9 µM
  TGI: 4.49 µM
[14]
  GI50: 1.21 µM
  TGI: 6.68 µM
[15]
  GI50: 3.07 µM
  TGI: > 36.8 µM
[16]
  GI50: 3.19 µM
  TGI: > 30.8 µM
[17]
  GI50: 1.67 µM
  TGI: 3.63 µM
[18]
  GI50: 2 µM
  TGI: 5.41 µM
[19]
  GI50: 3.16 µM
  TGI: 10.3 µM
[20]
  GI50: 1.61 µM
  TGI: 3.09 µM
[21]
  GI50: 1.7 µM
  TGI: 3.17 µM
[22]
  GI50: 2.22 µM
  TGI: > 22.2 µM
[23]
  GI50: 1.84 µM
  TGI: 4.82 µM
[24]
  GI50: 4.21 µM
  TGI: 18.1 µM
[25]
  GI50: 0.472 µM
  TGI: 1.43 µM
[26]
  GI50: 1.44 µM
  TGI: 2.78 µM
[27]
  GI50: 1.7 µM
  TGI: 5.34 µM
[28]
  GI50: 1.79 µM
  TGI: 4.11 µM
[29]
  GI50: 8.18 µM
  TGI: > 47.4 µM
[30]
  GI50: 16.8 µM
  TGI: > 100 µM
[31]
  GI50: 0.676 µM
  TGI: 1.89 µM
[32]
  GI50: 2.41 µM
  TGI: 7.84 µM
[33]
  GI50: 3.07 µM
  TGI: > 31.3 µM
[34]
  GI50: 0.182 µM
  TGI: 0.423 µM
[35]
  GI50: 1.76 µM
  TGI: 3.67 µM
[36]
  GI50: 2.09 µM
  TGI: 18.1 µM
[37]
  GI50: 2.01 µM
  TGI: 4.36 µM
[38]
  GI50: 1.52 µM
  TGI: 2.94 µM
[39]
  GI50: 3.09 µM
  TGI: > 20.9 µM
[40]
  GI50: 1.71 µM
  TGI: 3.09 µM
[41]
  GI50: 1.64 µM
  TGI: 3.32 µM
[42]
  GI50: 1.35 µM
[43]
  GI50: 2.01 µM
  TGI: 4.28 µM
[44]
  GI50: 1.45 µM
  TGI: 3.02 µM
[45]
  GI50: 1.96 µM
  TGI: 5.73 µM
[46]
  GI50: 2.17 µM
  TGI: 5.28 µM
[47]
  GI50: 1.4 µM
  TGI: 5.29 µM
[48]
  GI50: 0.497 µM
  TGI: 1.85 µM
[49]
  GI50: 2.42 µM
  TGI: 6.59 µM
[50]
  GI50: 1.16 µM
[51]
  GI50: 1.48 µM
  TGI: 2.9 µM
[52]
  GI50: 0.646 µM
  TGI: 1.91 µM
[53]
  GI50: 0.999 µM
[54]
  GI50: 1.75 µM
  TGI: 5.71 µM
[55]
  GI50: 3.01 µM
  TGI: 9.65 µM
[56]
  GI50: 0.51 µM
  TGI: 7.83 µM
[57]
  GI50: 2 µM
  TGI: 5.29 µM
[58]
  GI50: 1.32 µM
  TGI: 3.37 µM
